Assay results reported in publication PMC9002018, “The Antimicrobial Peptide MPX Can Kill Staphylococcus aureus, Reduce Biofilm Formation, and Effectively Treat Bacterial Skin Infections in Mice” (Frontiers in Veterinary Science, 2022).
Where no end group is shown, it is not given here.

What was measured:
[1] = tested on: S. aureus ATCC 25923; experiment: Time-killing curve (OD600 and plate counting); format: cell-based, Staphylococcus aureus; conditions: 37°C
Procedure: S. aureus was cultivated, the OD600 of the bacterial solution was adjusted to approximately 1.0, and MPX (1×MIC, 4×MIC) was added. In addition, sterile water was used as a control. The samples were incubated with shaking at 37°C. The OD600 value of the bacterial solution was measured every 1 h, and plate counting was performed at the same time to obtain the antibacterial time-killing curve of MPX against S. aureus ATCC 25923 ([15]).

[2] = tested on: S. aureus ATCC 25923 biofilm; experiment: Biofilm observation by SEM and confocal laser microscopy (SYTO 9/PI); format: cell-based, Staphylococcus aureus; conditions: MPX 4×MIC added to 24 h biofilm
Procedure: S. aureus ATCC 25923 was cultivated as described above. After culturing in a 37°C incubator for 24 h, MPX (final concentration: 4×MIC) was added to the sample. […] S. aureus was washed 3 times with 0.85% NaCl to remove nucleic acids and other medium components. A LIVE/DEAD BacLight Bacterial Viability L-7012 Kit (Molecular Probes, Eugene, OR, USA), containing two component dyes (SYTO 9 and PI in a 1:1 mixture) in solution, was used prior to microscopy and quantitative assays according to the test instructions. A total of 3 μL of the dye mixture was added to each well, the wells were incubated at room temperature in the dark for 15 min, and the bacterial survival in the biofilm was observed by confocal laser microscopy.
A sterile slides were placed in 6-well cell culture plates and bacteria were allowed to grow naturally on the slides to form a biofilm. Overnight culture broth and fresh broth were added at a volume ratio of 1:100, and incubated at 37°C for 24 h. Different final concentrations of MPX (1×MIC, 4×MIC) were added, incubation was continued. Then, a 2.5% glutaraldehyde solution was added to each well, and the cells were fixed at room temperature for 30 min. The plate was rinsed 3 times with PBS for 10 min each time. Gradient dehydration was performed with increasing concentrations of an ethanol solution (30, 50, 70, 80, 90, 95, and 100%). […]

[3] = tested on: S. aureus; experiment: Propidium iodide uptake (fluorescence microscopy); format: cell-based, Staphylococcus aureus; conditions: MPX 4×MIC for 0.5 h, compared with group without peptide
Procedure: S. aureus was centrifuged, washed, and resuspended in sterile PBS. MPX (4×MIC) was added to the bacterial solution. The bacteria were cultured with shaking at 37°C and then centrifuged and resuspended in PBS solution. The cells were incubated with propidium iodide (PI) stain for 10 min in the dark. The suspension was fixed on a clean glass slide and observed with a fluorescence microscope.

[4] = tested on: S. aureus ATCC 25923; experiment: Agar diffusion test of antibacterial activity; format: cell-based, Staphylococcus aureus; conditions: 1 mg/mL MPX, 20 μL per well, overnight at 37°C; sterile water control had no zone
Procedure: The agar diffusion test was used to detect the antibacterial effect of MPX on S. aureus ATCC 25923. S. aureus ATCC 25923 was cultured overnight, and the supernatant was discarded by centrifugation. The bacteria were washed with sterile PBS, and resuspended in a smaller volume to concentrate the cells. Next, 50 μL of the bacterial solution was pipetted into 15 mL of agar and shaken gently to mix. The plate was poured, a puncher was used to make holes after the agar medium had solidified and 20 μL of 1 mg/mL MPX was added to the wells. Sterile water was used as a control. The plates were incubated overnight at 37°C and the results were observed.

[5] = tested on: S. aureus ATCC 25923; experiment: Electron microscopy (SEM, TEM) of bacterial morphology; format: cell-based, Staphylococcus aureus
Procedure: A sterile slides were placed in 6-well cell culture plates and bacteria were allowed to grow naturally on the slides to form a biofilm. Overnight culture broth and fresh broth were added at a volume ratio of 1:100, and incubated at 37°C for 24 h. Different final concentrations of MPX (1×MIC, 4×MIC) were added, incubation was continued. Then, a 2.5% glutaraldehyde solution was added to each well, and the cells were fixed at room temperature for 30 min. The plate was rinsed 3 times with PBS for 10 min each time. Gradient dehydration was performed with increasing concentrations of an ethanol solution (30, 50, 70, 80, 90, 95, and 100%). After ion spray gold coating, biofilm formation was observed by scanning electron microscopy (SEM) ([17]).
Transmission electron microscopy (TEM) was used to detect the bacterial structure changes after MPX acted on S. aureus ATCC 25923. S. aureus was cultured overnight. MPX was added to different final concentrations. The cells were incubated with shaking at 37°C for 2 h, and then sodium phosphotungstate was used for negative staining. The effect of AMPs on S. aureus was observed. Centrifugation, fixation, dehydration, soaking, embedding and polymerization, sectioning and staining of the culture were performed. Finally, a transmission electron microscope was used to observe the results.

[6] = tested on: S. aureus ATCC 25923; experiment: NPN uptake (membrane integrity); format: cell-based, Staphylococcus aureus; conditions: MPX 0.02 μM (1×MIC), NPN 10 μM, ex 350 nm / em 420 nm, 0–10 min; comparator ampicillin 50 μg/mL
Procedure: S. aureus ATCC 25923 was cultured overnight in a 96-well plate. An NPN solution was added to a final concentration of 10 μM. The solutions were mixed well and incubated for 20 min. MPX (1×MIC, 4×MIC) was added to the wells. Sterile water was used as the control, and ampicillin (Amp) ([…]/50 μg/mL) was used as the positive control. The excitation wavelength was 350 nm, the emission wavelength was 420 nm, and the fluorescence intensity was detected by a microplate reader ([13]).

[7] = target: proteinase K (Parengyodontium album, UniProt P06873); experiment: Protease stability assay with proteinase K, read by agar diffusion; format: in vitro ADME; conditions: MPX 1.3 μM, 37°C, 30 min
Procedure: (§1) An MPX protease stability assay was performed in the following manner. MPX (1.3 μM) was mixed with equal volumes of proteinase K and trypsin at different concentrations. After incubating at 37°C for 30 min, the samples were incubated in a boiling water bath for 5 min to stop the protease reaction. The protease stability of MPX was detected by the agar diffusion assay.

[8] = tested on: S. aureus ATCC 25923; experiment: DiSC3-5 assay for membrane potential; format: cell-based, Staphylococcus aureus; conditions: MPX 1×MIC
Procedure: Overnight-cultured S. aureus ATCC 25923 was centrifuged and resuspended in sterile PBS. A DiSC3-5 solution was added to a final concentration of 1 μM. The cells were incubated in the dark for 20 min. MPX (1×MIC, 2×MIC and 4×MIC) was added. Sterile water was used as the control, and AMP ([…]/50 μg/mL) was used as the positive control. The excitation wavelength was 622 nm, the emission wavelength was 670 nm, and the fluorescence intensity was detected by a microplate reader.

[9] = tested on: S. aureus ATCC 25923 biofilm; experiment: Crystal violet assay of biofilm formation; format: cell-based, Staphylococcus aureus; conditions: MPX 0.5×MIC, 24 h at 37°C, p < 0.01, n = 3
Procedure: An overnight culture of S. aureus was inoculated into a 96-well polystyrene microtiter plate at a ratio of 1%. MPX (0.25×MIC, 0.5×MIC and 1×MIC) was added to the wells. Sterile water was used as a control. The plates were incubated at 37°C for 24 h. The microplates were then washed 3 times with sterile PBS, and the cells were fixed with 70% methanol for 30 min. Then, the cells were stained with 1% Hucker crystal violet staining solution at room temperature for 5 min. The dyeing solution was aspirated, and the cells were rinsed with water until no color remained. Images were acquired after drying. Then, 100 μL of a 70% ethanol solution was added to each well to dissolve the residual dye, and a microplate reader was used to measure the absorbance at OD570 nm ([16]).

[10] = tested on: S. aureus ATCC 25923; experiment: BCA protein assay of bacterial supernatant (protein leakage); format: cell-based, Staphylococcus aureus; conditions: MPX (1×MIC, 4×MIC) for 5 min, BCA kit, P < 0.01, n = 3
Procedure: S. aureus was cultured overnight, washed and resuspended in sterile PBS. MPX (1×MIC, 4×MIC) was added to the bacterial solution. Sterile water was added as a control. A peptide-only group was a negative control. The mixture was allowed to stand for 5 min, and the supernatant was collected after centrifugation. The effect of MPX on the permeability of S. aureus ATCC 25923 for protein was analyzed according to the instructions of the BCA kit.

[11] = tested on: A. pleuropneumoniae; conditions: previous experiment of the same laboratory; cited from earlier work
Description: S. aureus can cause a wide range of infections, which can lead to organ failure and death in severe cases. It is one of the most common pathogens in communities and hospitals worldwide. The emergence and rapid spread of methicillin-resistant S. aureus strains have produced great challenges for clinical treatment. According to reports, patients with methicillin-resistant S. aureus infection have an increased clinical risk, especially an increased risk of mortality ([18]). Therefore, we must strengthen the prevention of MDR S. aureus infection, find effective alternatives to antibiotics, and ide ...

[12] = tested on: S. aureus; experiment: Stability to salt ions, pH, temperature and repeated freezing and thawing, read by agar diffusion; format: physicochemical, Staphylococcus aureus; conditions: n = 3
Procedure: […] Solutions with different pH values were prepared with HCl and NaOH, producing pH values of 4, 5, 6, 7, 8, 9, 10, and MPX was incubated in these solutions for 30 min. MPX solutions were also incubated at different temperatures for 30 min (0, 25, 50, 75, and 100°C). A 1 mg/mL MPX solution was repeatedly frozen and thawed 0, 2, 4, 6, 8, 10, and 12 times. Ten microlitres of each of the peptide solutions treated as described above was collected, and the changes in the antimicrobial activity of the AMPs were detected by the agar diffusion assay.

[13] = tested on: trypsin; experiment: Protease stability assay with trypsin, read by agar diffusion; format: in vitro ADME; conditions: MPX 1.3 μM, 37°C, 30 min
Procedure: as §1

proteinase K, sequence (P06873 106-384, species assumed): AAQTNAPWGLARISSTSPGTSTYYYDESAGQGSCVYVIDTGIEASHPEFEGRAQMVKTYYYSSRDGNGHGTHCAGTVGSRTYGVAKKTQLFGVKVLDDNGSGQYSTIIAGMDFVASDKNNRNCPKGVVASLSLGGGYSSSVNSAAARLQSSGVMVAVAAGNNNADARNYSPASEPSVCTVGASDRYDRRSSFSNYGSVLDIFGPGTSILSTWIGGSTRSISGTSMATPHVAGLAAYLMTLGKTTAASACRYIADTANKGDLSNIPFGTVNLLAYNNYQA

With INWKGIAAMAKKLL-NH2 [MPX] the “inhibition in killing curve” value ([1]; MPX 1×MIC, within 5 h) was “relatively stable inhibition”, the “bacteria killed (killing curve)” value ([1]; MPX 4×MIC, within 1 h, start OD600 approx. 1.0, plate counting, n = 3) was 99.9% and the “number of dead bacteria in the S. aureus biofilm (confocal, SYTO 9/PI)” value [2] was “significantly increased”. The “number of PI-stained bacteria” value [3] was “significantly increased”, the “zone of inhibition (agar diffusion)” value [4] was “produced a zone of inhibition” and the “bacterial morphology (SEM/TEM)” value ([5]; MPX 1×MIC) was “shrink and leak cell contents”. For the same substance, the “cell membrane of S. aureus (TEM)” value ([5]; MPX 4×MIC, 2 h at 37°C) was “severely damaged”, the “NPN fluorescence intensity (membrane integrity)” value [6] was “significantly higher than that of the control group and the antibiotic AMP treatment group” and the “effect of proteinase K on antibacterial activity” value ([7]; 40 μg/mL proteinase K, agar diffusion, n = 3) was “significantly reduced”. For the same substance, the “residual antibacterial activity after proteinase K” value ([7]; 100 μg/mL proteinase K, equal volumes, agar diffusion vs S. aureus ATCC 25923, n = 3) was 66.3%, the “time to membrane depolarization (DiSC3-5)” value ([8]; 4×MIC, DiSC3-5 1 μM, ex 622 nm / em 670 nm) was ≤ 10 s and the “DiSC3-5 fluorescence intensity compared with antibiotic AMP” value ([8]; comparator AMP 50 μg/mL) was “higher than that produced by the antibiotic AMP”. For the same substance, the “S. aureus biofilm formation (crystal violet, OD570)” value [9] was “significantly reduced”, the “total protein content of bacterial culture supernatant” value [10] was “significantly higher than that of the control group” and the “effect of Ca2+ and Mg2+ on killing effect of MPX on A. pleuropneumoniae” value [11] was “significantly inhibit”. For the same substance, the “effect of temperature on antibacterial activity of MPX (thermal stability)” value ([12]; 0, 25, 50, 75 and 100°C for 30 min) was “basically no effect”, the “effect of repeated freezing and thawing on antimicrobial activity of MPX” value ([12]; 1 mg/mL MPX frozen and thawed 0–12 times) was “did not change significantly” and the “effect of CaCl2 on antibacterial activity of MPX” value ([12]; CaCl2 50, 100, 150, 200 and 250 mmol/mL, incubated 30 min) was “no significant effect”. For the same substance, the “effect of KCl on antibacterial activity of MPX” value ([12]; KCl 50, 100, 150, 200 and 250 mmol/mL, incubated 30 min) was “little effect”, the “effect of MgCl2 on antibacterial activity of MPX” value ([12]; MgCl2 50, 100, 150, 200 and 250 mmol/mL, incubated 30 min) was “no significant effect” and the “effect of NaCl on antibacterial activity of MPX” value ([12]; NaCl 50, 100, 150, 200 and 250 mmol/mL, incubated 30 min) was “little effect”. The “effect of pH on MPX activity” value ([12]; pH 4–10 (HCl/NaOH), incubated 30 min) was “basically no effect”, the “effect of trypsin on antibacterial activity” value ([13]; 20 μg/mL trypsin, agar diffusion, n = 3) was “significantly reduce” and the “residual antibacterial activity after trypsin” value ([13]; 100 μg/mL trypsin, equal volumes, agar diffusion vs S. aureus ATCC 25923, n = 3) was 19.6%.
